Measurements as given in PMC3006138, “Fexinidazole – A New Oral Nitroimidazole Drug Candidate Entering Clinical Development for the Treatment of Sleeping Sickness” (PLoS Neglected Tropical Diseases, 2010).

Assay: Hepatocyte intrinsic clearance and metabolite profile
Type: in vitro ADME, rat
Settings: male, Sprague Dawley, rat, cryopreserved hepatocytes, 1 µM
Description: Fexinidazole was incubated with cryopreserved hepatocytes from male CD-1 mice, male Sprague Dawley rats, male beagle dogs, male cynomolgus monkeys, and from pooled white or African-American human donor samples (purchased commercially), at concentrations of 1 µM and 10 µM. […] The incubated samples were analyzed by LC-MS after extraction into acetonitrile.
A quality control analysis of fexinidazole was performed via 1H-NMR in DMSO and LC- […]
provided by the Swiss Tropical Institute (Basel, Switzerland).
Reagents and solvents were of analytical grade and obtained from Sigma-Aldrich (St. Louis, […]
Cryopreserved hepatocytes from the male CD1 mouse, lot CSI; male Sprague Dawley rat, lot LPL; male beagle dog, lot BWX; male cynomolgus monkey, lot EHH; and pooled human samples, lot MJI, were purchased from In Vitro Technologies Inc (Baltimore, Maryland, […]
5.4. In vitro Incubations
On the day of the experiment a 10 mM stock solution of fexinidazole in DMSO was prepared and, within 3 hours, aliquots of this freshly prepared solution, after suitable dilution, were added to the incubation matrix, to reach fexinidazole final concentrations of 1 and 10 µM. The final percentage of DMSO was 0.01% in the incubation samples for the […]
On the day of experiment, the cryopreserved hepatocytes were thawed following the detailed instructions provided by the supplier.
The number of viable cells was determined using a Trypan Blue exclusion method.
5.4.1. Intrinsic Clearance Study […]
µM with mouse, rat, dog, monkey and human hepatocytes (300000 cells/mL for the mouse and 1 million cells/mL for the other species) in a final incubation volume of 0.75 mL […]
Incubations were performed in duplicate in a 48-well plate under shaking. Sampling was performed using an automatic liquid handling system (Multiprobe II EX, Packard). At 0, 1, 5, 10, 15, 20, 30, 60 and 120 minutes, 50 µL aliquots of the incubates were taken, then 80 µL of ice-cold acetonitrile and 20 µL of 1 µM warfarin in acetonitrile (internal standard) were added, and samples centrifuged at 2000 rpm for 20 min. The supernatant was analyzed by LC-MS/MS. […]
the medium alone at t = 0 and 120 minutes.
For the determination of phase I and phase II activity of hepatocytes, 7-ethoxycoumarin (7-EC) 1 µM, and 7-hydroxycoumarin (7-HC) 30 µM were used as positive controls and incubated under the same conditions as fexinidazole. Aliquots of incubates were taken at 0, 10, 20, 30, 60 and 120 minutes and processed as fexinidazole samples.
5.4.2. Metabolite Profile Study
For metabolite profiling, fexinidazole was incubated at a concentration of 10 µM with mouse, rat, dog, monkey and human hepatocytes (300000 cells/mL for the mouse and 1 million cells/mL for the other species) in a final incubation volume of 2 mL Leibovitz L-15 […]
Aliquots of the incubation samples were taken at t = 0, 30 and 120 minutes; the metabolism was stopped by the addition of an equal volume of cold acetonitrile and the samples centrifuged at 1500 rpm for 20 min. The supernatant was stored at -20°C until analysis. Control incubations were performed with the compound in the medium alone […]
5.5. Analysis of Samples for Intrinsic Clearance Determination
The analysis of the samples for intrinsic clearance determination was performed by an LC-MS/MS method, using the following conditions:
HPLC Equipment and Conditions
HPLC system Agilent 1100 binary pump (Agilent, Palo Alto, USA)
Autosampler CTC Pal (Alfatech, San Jose, USA)
Analytical column Guard Column SB-C8 4.6 x 12.5 mm, 5 µm (Zorbax)
Column temperature ambient
Mobile phase A 10 mM ammonium formate pH 4.0: acetonitrile (95:5, v:v)
Mobile phase B 10 mM ammonium formate pH 4.0: acetonitrile (5:95, v:v) […]
Gradient conditions Step Total time (min) flow (µL/min) %A % B […]
MS Equipment and Conditions
Mass spectrometer API 4000 Triple Quadrupole (MDS-Sciex, Toronto, […]
Source Turbo Ion Spray (TIS)
Ion mode Positive for fexinidazole and 7-EC.
Negative for 7-HC, 7-HC sulphate and 7-HC glucuronide.

Question: What does the source list for CSc1ccc(OCc2ncc([N+](=O)[O-])n2C)cc1 [Fexinidazole, 1-methyl-2-((p-(methylthio)phenoxy)methyl)-5-nitroimidazole]?
Answer: half-life at 1 µM: 1.2 min; CLint scaled at 1 µM (read-out: CLint in vitro): > 3000 mL/min/kg; hepatocyte CLint at 1 µM (read-out: CLint in vitro): 602 µL/min/1e6 cells
